The text below walks through data of patent US10821115B2, “Compounds that inhibit Mcl-1 protein” (priority 2017, dated 2020).

The target in assay [1] is recombinant human Mcl-1 (residues 171-327) / Bim interaction (Homo sapiens (Human), UniProt Q07820). The assay is described as follows: biochemical. The settings on record: read-out: Mcl-1 HTRF IC50. The class given is binding. (TR-FRET usually uses a lanthanide donor and a delayed reading to cut background.)
In assay [2] the test system is human multiple myeloma cell line, OPM-2. The assay is described as follows: Cell viability assay (OPM-2 10 FBS), CellTiter-Glo. The class given is cell-based. A digest of the protocol:
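IC50 values come from 4-parameter logistic fits of luminescence signals reflecting cell viability. Treatment lasted 16 h at 37 °C in complete medium with 10% FBS, starting from 3000 cells/well.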

The mark [3] stands for this setting: TR-FRET, Mcl-1(171-327) / biotin-Bim (51-76).
Setting [4] is: read-out: OPM-2 10% FBS IC50 IP, OPM-2 cells, 10% FBS, 16 h, CellTiter-Glo.
Setting [5] is: Homo sapiens, OPM-2, 16 h, read-out: OPM-2 10% FBS IC50 IP, OPM-2 cells, 10% FBS, 16 h, CellTiter-Glo.
Setting [6] is: 0.1 nM Mcl-1(171-327), 0.05 nM biotin-Bim (51-76).
The mark [7] stands for this setting: Homo sapiens, OPM-2, 16 h, read-out: OPM-2 10% FBS IC50 IP, OPM-2 cells, 10% FBS, 16 h incubation.
Where [8] appears, read: read-out: OPM-2 10% FBS IC50 IP, OPM-2 cells, 10% FBS, 16 h incubation.

Read-outs that look alike come from different tables or passages of the source.

Chain of recombinant human Mcl-1 (residues 171-327) / Bim interaction (Q07820 171-327): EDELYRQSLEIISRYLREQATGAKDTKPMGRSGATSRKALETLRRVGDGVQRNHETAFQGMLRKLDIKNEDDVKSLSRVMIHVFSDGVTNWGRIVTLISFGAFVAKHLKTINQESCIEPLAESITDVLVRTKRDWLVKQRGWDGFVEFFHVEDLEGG

As usually defined, the IC50 is the concentration needed to halve the response being measured. Take `C[C@@H]1[C@@H](C)C/C=C/[C@@](O)(C#CCN2CCCCC2)[C@@H]2CC[C@H]2CN2C[C@@]3(CCCc4cc(Cl)ccc43)COc3ccc(cc32)C(=O)NS1(=O)=O` [Example 100421, (1S,3′R,6′R,7′S,8′E,11′S,12′R)-6-chloro-7′-hydroxy-11′,12′-dimethyl-7′-(3-(1-piperidinyl)-1-propyn-1-yl)-3,4-dihydro-2H,15′H-spiro[naphthalene-1,22′-[20]oxa[13]thia[1,14]diazatetracyclo [14.7.2.0~3,6~.0~19,24~]pentacosa[8,16,18,24]tetraen]-15′-one 13′,13′-dioxide]: the IC50 was determined as 3.93 nM in assay [1] (setting [3]) and 4930 nM in assay [2] (setting [4]).
Regarding `CC[C@@H]1CC/C=C/[C@@](OC)(C2SCCCS2)[C@@H]2CC[C@H]2CN2C[C@@]3(CCCc4cc(Cl)ccc43)COc3ccc(cc32)C(=O)NS1(=O)=O` (single isomer, unassigned) [Example 100579], the IC50 was 0.214 nM in assay [1] (setting [3]) and 757 nM in assay [2] (setting [5]).
For the compound `C[C@@H]1[C@@H](C)CCC[C@@](O)(CC(=O)N2CCCCC2)[C@@H]2CC[C@H]2CN2C[C@@]3(CCCc4cc(Cl)ccc43)COc3ccc(cc32)C(=O)NS1(=O)=O` [Example 100090, (1S,3′R,6′R,7′R,11′S,12′R)-6-chloro-7′-hydroxy-11′,12′-dimethyl-7′-(2-oxo-2-(1-piperidinyl)ethyl)-3,4-dihydro-2H,15′H-spiro[naphthalene-1,22′-[20]oxa[13]thia[1,14]diazatetracyclo [14.7.2.0~3,6~.0~19,24~]pentacosa[16,18,24]trien]-15′-one 13′,13′-dioxide], the results for the IC50 in assay [1] (setting [3]) and in assay [2] (setting [4]) were 0.795 nM and 798 nM, respectively.
On to `CO[C@@]1(C[C@@H](O)C(C)C)/C=C/C[C@H](C)[C@@H](C)S(=O)(=O)NC(=O)c2ccc3c(c2)N(C[C@@H]2CC[C@H]21)C[C@@]1(CCCc2cc(Cl)ccc21)CO3` (racemic) [Example 100326, (1S,3′R,6′R,7′S,8′E,11′S,12′R)-6-chloro-7′-((2R)-2-hydroxy-3-methylbutyl)-7′-methoxy-11′,12′-dimethyl-3,4-dihydro-2H,15′H-spiro[naphthalene-1,22′-[20]oxa[13]thia[1,14]diazatetracyclo [14.7.2.0~3,6~.0~19,24~]pentacosa[8,16,18,24]tetraen]-15′-one 13′,13′-dioxide], for which the IC50 is 0.615 nM in assay [1] (setting [3]) and 334 nM in assay [2] (setting [5]).
In the case of `COCC[C@@H]1[C@@H](C)C/C=C/[C@](CN2CCN(C3COC3)CC2)(OC)[C@@H]2CC[C@H]2CN2C[C@@]3(CCCc4cc(Cl)ccc43)COc3ccc(nc32)C(=O)NS1(=O)=O` [Example 23, (1S,3′R,6′R,7′S,8′E,11′S,12′R)-6-chloro-7′-methoxy-12′-(2-methoxyethyl)-11′-methyl-7′-((4-(3-oxetanyl)-1-piperazinyl)methyl)-3,4-dihydro-2H,15′H-spiro[naphthalene-1,22′-[20]oxa[13]thia[1,14,25]triazatetracyclo [14.7.2.0~3,6~.0~19,24~]pentacosa[8,16,18,24]tetraen]-15′-one 13′,13′-dioxide], the IC50 in assay [1] (setting [6]) is 0.071 nM; in assay [2] (setting [7]) it was 24 nM.
For `CO[C@@]1(CN2CCc3[nH]nnc3C2)/C=C/C[C@H](C)[C@@H](C)S(=O)(=O)NC(=O)c2ccc3c(c2)N(C[C@@H]2CC[C@H]21)C[C@@]1(CCCc2cc(Cl)ccc21)CO3` [Example 205, (1S,3′R,6′R,7′S,8′E,11′S,12′R)-6-chloro-7′-methoxy-11′,12′-dimethyl-7′-(1,4,6,7-tetrahydro-5H-[1,2,3]triazolo[4,5-c]pyridin-5-ylmethyl)-3,4-dihydro-2H,15′H-spiro[naphthalene-1,22′-[20]oxa[13]thia[1,14]diazatetracyclo [14.7.2.0~3,6~.0~19,24~]pentacosa[8,16,18,24]tetraen]-15′-one 13′,13′-dioxide], the IC50 in assay [1] (setting [6]) stood at 0.263 nM; in assay [2] (setting [7]), 437 nM.
Consider `C[C@@H]1[C@@H](C)C/C=C/[C@@]2(CCCO2)[C@@H]2CC[C@H]2CN2C[C@@]3(CCCc4cc(Cl)ccc43)COc3ccc(cc32)C(=O)NS1(=O)=O` (single isomer, unassigned) [Example 100159], for which the IC50 in assay [1] (setting [3]) was 0.559 nM; in assay [2] (setting [5]) it was 591 nM.
`CO[C@@]1(CN2CCN3CCC(F)(F)C[C@@H]3C2)/C=C/C[C@H](C)[C@@H](C)S(=O)(=O)NC(=O)c2ccc3c(c2)N(C[C@@H]2CC[C@H]21)C[C@@]1(CCCc2cc(Cl)ccc21)CO3` (single isomer, unassigned) [Example 288]: the IC50 came out at 0.484 nM in assay [1] (setting [6]) and 652 nM in assay [2] (setting [8]).
Turning to `COCCOC[C@@]1(O)CCC[C@H](C)[C@@H](C)S(=O)(=O)NC(=O)c2ccc3c(c2)N(C[C@@H]2CC[C@H]21)C[C@@]1(CCCc2cc(Cl)ccc21)CO3` [Example 100193, (1S,3′R,6′R,7′R,11′S,12′R)-6-chloro-7′-hydroxy-7′-((2-methoxyethoxy)methyl)-11′,12′-dimethyl-3,4-dihydro-2H,15′H-spiro[naphthalene-1,22′-[20]oxa[13]thia[1,14]diazatetracyclo [14.7.2.0~3,6~.0~19,24~]pentacosa[16,18,24]trien]-15′-one 13′,13′-dioxide], the results for the IC50 in assay [1] (setting [3]) and in assay [2] (setting [5]) were 0.856 nM and 1300 nM, respectively.
Take `CO[C@]1(CN2CC[C@H]3CCCC[C@@H]3C2)/C=C/C[C@H](C)[C@@H](C)S(=O)(=O)NC(=O)c2ccc3c(c2)N(C[C@@H]2CC[C@H]21)C[C@@]1(CCCc2cc(Cl)ccc21)CO3` [Example 86]: the IC50 stood at 3.9 nM in assay [1] (setting [6]) and 7950 nM in assay [2] (setting [8]).
Take `Cc1ccc([C@@]2(O)/C=C/C[C@H](C)[C@@H](C)S(=O)(=O)NC(=O)c3ccc4c(c3)N(C[C@@H]3CC[C@H]32)C[C@@]2(CCCc3cc(Cl)ccc32)CO4)cn1` [Example 100407, (1S,3′R,6′R,7′R,8′E,11′S,12′R)-6-chloro-7′-hydroxy-11′,12′-dimethyl-7′-(6-methyl-3-pyridinyl)-3,4-dihydro-2H,15′H-spiro[naphthalene-1,22′-[20]oxa[13]thia[1,14]diazatetracyclo [14.7.2.0~3,6~.0~19,24~]pentacosa[8,16,18,24]tetraen]-15′-one 13′,13′-dioxide]: the figures for the IC50 in assay [1] (setting [3]) and in assay [2] (setting [5]) were 0.278 nM and 516 nM, respectively.
On to `CO[C@]1(CN2CCC2)/C=C/C[C@H](C)[C@@H](C)S(=O)(=O)NC(=O)c2ccc3c(c2)N(C[C@@H]2CC[C@H]21)C[C@@]1(CCCc2cc(Cl)ccc21)CO3` [Example 76, (1S,3′R,6′R,7′R,8′E,11′S,12′R)-7′-(1-azetidinylmethyl)-6-chloro-7′-methoxy-11′,12′-dimethyl-3,4-dihydro-2H,15′H-spiro[naphthalene-1,22′-[20]oxa[13]thia[1,14]diazatetracyclo [14.7.2.0~3,6~.0~19,24~]pentacosa[8,16,18,24]tetraen]-15′-one 13′,13′-dioxide], for which the results for the IC50 in assay [1] (setting [6]) and in assay [2] (setting [7]) were 3.81 nM and 670 nM, respectively.
For `C[C@@H]1[C@@H](C)C/C=C/[C@](O)(C(C)(C)C#N)[C@@H]2CC[C@H]2CN2C[C@@]3(CCCc4cc(Cl)ccc43)COc3ccc(cc32)C(=O)NS1(=O)=O` [Example 100059, 2-((1S,3′R,6′R,7′R,8′E,11′S,12′R)-6-chloro-7′-hydroxy-11′,12′-dimethyl-13′,13′-dioxido-15′-oxo-3,4-dihydro-2H-spiro[naphthalene-1,22′-[20]oxa[13]thia[1,14]diazatetracyclo [14.7.2.0~3,6~.0~19,24~]pentacosa[8,16,18,24]tetraen]-7′-yl)-2-methylpropanenitrile], the figures for the IC50 in assay [1] (setting [3]) and in assay [2] (setting [5]) were 11.9 nM and 3450 nM, respectively.
For `C[C@@H]1[C@@H](C)CCC[C@@](O)(COS(C)(=O)=O)[C@@H]2CC[C@H]2CN2C[C@@]3(CCCc4cc(Cl)ccc43)COc3ccc(cc32)C(=O)NS1(=O)=O` [Example 100271, ((1S,3′R,6′R,7′S,11′S,12′R)-6-chloro-7′-hydroxy-11′,12′-dimethyl-13′,13′-dioxido-15′-oxo-3,4-dihydro-2H-spiro[naphthalene-1,22′-[20]oxa[13]thia[1,14]diazatetracyclo [14.7.2.0~3,6~.0~19,24~]pentacosa[16,18,24]trien]-7′-yl)methyl methanesulfonate], the IC50 stood at 2.48 nM in assay [1] and 6120 nM in assay [2] (setting [4]).
Regarding `C[C@@H]1[C@@H](C)C[C@H]2C=CC[C@](O)(C2)[C@@H]2CC[C@H]2CN2C[C@@]3(CCCc4cc(Cl)ccc43)COc3ccc(cc32)C(=O)NS1(=O)=O` [Example 100057, (1S,3′R,6′R,7′S,11′R,13′S,14′R)-6-chloro-7′-hydroxy-13′,14′-dimethyl-3,4-dihydro-2H,17′H-spiro[naphthalene-1,24′-[22]oxa[15]thia[1,16]diazapentacyclo [16.7.2.1~7,11~.0~3,6~.0~21,26~]octacosa [9,18,20,26]tetraen]-17′-one 15′,15′-dioxide], the results for the IC50 in assay [1] (setting [3]) and in assay [2] (setting [5]) were 0.568 nM and 2600 nM, respectively.
On to `CO[C@@]1(C)/C=C/C[C@H](C)[C@@H](CCOS(C)(=O)=O)S(=O)(=O)NC(=O)c2ccc3c(c2)N(C[C@@H]2CC[C@H]21)C[C@@]1(CCCc2cc(Cl)ccc21)CO3` (single isomer, unassigned) [Example 100598], for which the IC50 in assay [1] (setting [3]) worked out at 0.077 nM; in assay [2] (setting [4]), 188 nM.
